Three compounds from ChEMBL document CHEMBL6153041, “Discovery of High-Affinity SMARCA2/4 Bromodomain Ligands and Development of Potent and Exceptionally Selective SMARCA2 PROTAC Degraders” (J Med Chem, 2025) can be followed below.

The subject of experiment [1] is SK-MEL-5. Kind of experiment: Anticancer activity against SMARCA4 deficient human SK-MEL-5 cells assessed as maximal inhibition of cell growth measured after 7 days incubation by WST-8 assay relative to control. The experiment is classed as functional. The conditions noted are these: time 7 day.
A short description of experiment [2]: Anticancer activity against SMARCA4 deficient human NCI-H838 cells assessed as inhibition of cell growth measured after 7 days incubation by WST-8 assay. The experiment is classed as functional. Particulars: NCI-H838, 168 h, time 7 day.
In experiment [3] the test system is SK-MEL-5. Description: Anticancer activity against SMARCA4 deficient human SK-MEL-5 cells assessed as inhibition of cell growth measured after 7 days incubation by WST-8 assay. The experiment is classed as functional. Particulars: SK-MEL-5, 168 h, time 7 day.
For experiment [4], the target named is T1, von Hippel-Lindau disease tumor suppressor/SWI/SNF-related matrix-associated actin-dependent regulator of chromatin subfamily A member 2 (Homo sapiens, UniProt P51531+P40337). Kind of experiment: PROTAC activity at VHL1/SMARCA2 in human genetically modified Hela cells assessed as maximal degradation measured after 48 hrs incubation by Nano-Glo HiBiT Lytic Detection Assay relative to control. The experiment is classed as cell-based.

The target of experiment [5] is T2, von Hippel-Lindau disease tumor suppressor/SWI/SNF-related matrix-associated actin-dependent regulator of chromatin subfamily A member 4 (Homo sapiens, UniProt P51532+P40337). Kind of experiment: PROTAC activity at VHL1/SMARCA4 in human genetically modified Hela cells assessed as maximal degradation measured after 8 hrs incubation by Nano-Glo HiBiT Lytic Detection Assay relative to control. Format: cell-based.

Experiment [6] deals with T2, von Hippel-Lindau disease tumor suppressor/SWI/SNF-related matrix-associated actin-dependent regulator of chromatin subfamily A member 4. Kind of experiment: PROTAC activity at VHL1/SMARCA4 in human genetically modified Hela cells assessed as degradation measured after 48 hrs incubation by Nano-Glo HiBiT Lytic Detection Assay. Format: cell-based.
Target sequence in this assay (P51532 whole entry): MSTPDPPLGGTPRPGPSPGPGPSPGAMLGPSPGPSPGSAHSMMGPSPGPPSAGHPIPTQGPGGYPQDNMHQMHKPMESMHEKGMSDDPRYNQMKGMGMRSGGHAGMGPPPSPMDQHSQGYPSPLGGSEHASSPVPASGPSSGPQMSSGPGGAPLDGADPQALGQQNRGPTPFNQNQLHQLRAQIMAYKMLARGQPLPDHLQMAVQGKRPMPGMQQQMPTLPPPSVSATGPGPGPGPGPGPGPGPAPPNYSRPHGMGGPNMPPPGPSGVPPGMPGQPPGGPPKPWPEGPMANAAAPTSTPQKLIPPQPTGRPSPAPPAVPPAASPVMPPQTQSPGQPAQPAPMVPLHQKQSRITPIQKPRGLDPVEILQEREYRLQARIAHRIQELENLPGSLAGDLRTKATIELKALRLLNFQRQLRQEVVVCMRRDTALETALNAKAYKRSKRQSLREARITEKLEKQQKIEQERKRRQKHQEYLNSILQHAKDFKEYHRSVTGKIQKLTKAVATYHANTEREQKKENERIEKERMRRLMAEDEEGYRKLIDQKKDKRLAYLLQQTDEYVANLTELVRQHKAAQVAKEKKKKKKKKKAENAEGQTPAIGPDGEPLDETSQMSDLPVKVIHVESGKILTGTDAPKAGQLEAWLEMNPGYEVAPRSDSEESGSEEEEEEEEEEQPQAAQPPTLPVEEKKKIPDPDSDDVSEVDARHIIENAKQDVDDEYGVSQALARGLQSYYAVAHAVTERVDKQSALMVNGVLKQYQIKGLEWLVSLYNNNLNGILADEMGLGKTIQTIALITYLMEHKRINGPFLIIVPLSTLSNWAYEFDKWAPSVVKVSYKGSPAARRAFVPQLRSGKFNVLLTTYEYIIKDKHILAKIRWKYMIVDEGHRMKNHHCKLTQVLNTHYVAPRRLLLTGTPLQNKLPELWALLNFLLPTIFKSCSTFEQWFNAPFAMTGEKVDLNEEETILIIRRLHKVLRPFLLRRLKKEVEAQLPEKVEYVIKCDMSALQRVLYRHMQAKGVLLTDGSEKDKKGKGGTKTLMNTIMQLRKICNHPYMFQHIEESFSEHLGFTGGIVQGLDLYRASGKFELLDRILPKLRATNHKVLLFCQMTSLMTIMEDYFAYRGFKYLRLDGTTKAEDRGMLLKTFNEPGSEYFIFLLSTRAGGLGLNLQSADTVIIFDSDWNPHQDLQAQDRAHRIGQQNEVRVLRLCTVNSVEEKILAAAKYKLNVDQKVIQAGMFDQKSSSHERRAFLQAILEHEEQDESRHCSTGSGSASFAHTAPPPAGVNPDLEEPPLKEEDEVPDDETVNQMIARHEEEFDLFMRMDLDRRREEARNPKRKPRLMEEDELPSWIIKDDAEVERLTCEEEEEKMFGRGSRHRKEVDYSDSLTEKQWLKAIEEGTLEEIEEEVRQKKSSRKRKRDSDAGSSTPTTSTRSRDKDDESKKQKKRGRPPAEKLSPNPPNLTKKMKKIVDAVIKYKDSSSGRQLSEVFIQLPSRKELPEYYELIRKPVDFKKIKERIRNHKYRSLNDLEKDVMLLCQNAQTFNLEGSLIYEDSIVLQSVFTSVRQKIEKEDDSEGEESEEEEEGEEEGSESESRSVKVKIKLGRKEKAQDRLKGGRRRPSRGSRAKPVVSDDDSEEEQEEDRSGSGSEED
Target sequence in this assay (P40337 whole entry): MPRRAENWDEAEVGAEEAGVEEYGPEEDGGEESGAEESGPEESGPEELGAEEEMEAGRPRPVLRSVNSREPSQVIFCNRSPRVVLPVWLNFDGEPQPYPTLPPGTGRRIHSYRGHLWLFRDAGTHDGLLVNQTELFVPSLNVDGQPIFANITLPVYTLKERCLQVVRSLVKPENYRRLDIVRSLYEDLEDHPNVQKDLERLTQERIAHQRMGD
Experiment [7] concerns NCI-H1792. Kind of experiment: Anticancer activity against human NCI-H1792 cells harbouring wild type SMARCA4 assessed as inhibition of cell growth measured after 7 days incubation by WST-8 assay. Format: functional. The conditions noted are these: NCI-H1792, 168 h, time 7 day.
The target in experiment [8] is T2, von Hippel-Lindau disease tumor suppressor/SWI/SNF-related matrix-associated actin-dependent regulator of chromatin subfamily A member 4. Description: PROTAC activity at VHL1/SMARCA4 in human NCI-H1792 cells assessed as maximal degradation measured after 24 hrs incubation by Western blot analysis relative to control. The experiment is classed as cell-based.
The target in experiment [9] is T1, von Hippel-Lindau disease tumor suppressor/SWI/SNF-related matrix-associated actin-dependent regulator of chromatin subfamily A member 2. Description: PROTAC activity at VHL1/SMARCA2 in human genetically modified Hela cells assessed as maximal degradation measured after 8 hrs incubation by Nano-Glo HiBiT Lytic Detection Assay relative to control. The experiment is classed as cell-based.

For experiment [10] the target is unchanged. Kind of experiment: PROTAC activity at VHL1/SMARCA2 in human genetically modified Hela cells assessed as degradation measured after 8 hrs incubation by Nano-Glo HiBiT Lytic Detection Assay. Format: cell-based.
Target sequence in this assay (P51531 whole entry): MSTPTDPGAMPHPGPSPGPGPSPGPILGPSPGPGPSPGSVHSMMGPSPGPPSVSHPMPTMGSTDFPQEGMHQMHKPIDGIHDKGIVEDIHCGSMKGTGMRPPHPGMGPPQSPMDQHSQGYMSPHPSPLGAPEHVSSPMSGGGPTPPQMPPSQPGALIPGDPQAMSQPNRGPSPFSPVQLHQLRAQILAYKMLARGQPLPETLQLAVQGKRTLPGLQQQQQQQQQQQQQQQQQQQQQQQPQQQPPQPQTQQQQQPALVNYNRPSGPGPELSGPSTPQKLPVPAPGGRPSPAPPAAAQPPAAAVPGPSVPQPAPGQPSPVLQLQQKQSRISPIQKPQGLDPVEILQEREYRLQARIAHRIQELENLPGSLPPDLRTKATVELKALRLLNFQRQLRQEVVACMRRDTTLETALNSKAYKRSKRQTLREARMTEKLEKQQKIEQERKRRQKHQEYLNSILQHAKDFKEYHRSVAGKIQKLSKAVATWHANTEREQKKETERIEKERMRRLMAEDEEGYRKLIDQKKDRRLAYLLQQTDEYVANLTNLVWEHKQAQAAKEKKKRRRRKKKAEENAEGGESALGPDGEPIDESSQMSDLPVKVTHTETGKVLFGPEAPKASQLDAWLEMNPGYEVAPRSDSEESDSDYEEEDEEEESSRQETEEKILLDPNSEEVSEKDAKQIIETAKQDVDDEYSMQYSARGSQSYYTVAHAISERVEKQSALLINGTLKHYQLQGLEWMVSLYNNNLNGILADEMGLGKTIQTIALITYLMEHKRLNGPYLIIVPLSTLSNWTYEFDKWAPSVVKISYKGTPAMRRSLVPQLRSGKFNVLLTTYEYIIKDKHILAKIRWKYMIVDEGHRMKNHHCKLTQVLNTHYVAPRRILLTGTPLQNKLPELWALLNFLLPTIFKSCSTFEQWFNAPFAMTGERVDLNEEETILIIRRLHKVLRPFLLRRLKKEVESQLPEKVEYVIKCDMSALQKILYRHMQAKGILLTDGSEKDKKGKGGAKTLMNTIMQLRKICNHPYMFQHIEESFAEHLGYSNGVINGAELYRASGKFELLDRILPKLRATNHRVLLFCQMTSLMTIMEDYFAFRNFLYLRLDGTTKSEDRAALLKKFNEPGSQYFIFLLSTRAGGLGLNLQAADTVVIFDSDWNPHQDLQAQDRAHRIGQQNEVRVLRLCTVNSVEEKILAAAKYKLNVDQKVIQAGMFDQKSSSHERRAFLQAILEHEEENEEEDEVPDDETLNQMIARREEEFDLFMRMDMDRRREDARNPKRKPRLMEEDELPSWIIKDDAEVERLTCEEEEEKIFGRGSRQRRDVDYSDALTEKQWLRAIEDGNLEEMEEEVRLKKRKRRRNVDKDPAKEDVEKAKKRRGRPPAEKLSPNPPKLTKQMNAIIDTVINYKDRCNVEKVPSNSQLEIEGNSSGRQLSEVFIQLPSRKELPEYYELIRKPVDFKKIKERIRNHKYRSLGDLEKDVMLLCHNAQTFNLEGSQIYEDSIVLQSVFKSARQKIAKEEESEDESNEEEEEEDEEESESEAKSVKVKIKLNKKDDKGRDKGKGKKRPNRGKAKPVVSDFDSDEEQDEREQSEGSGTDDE
Target sequence in this assay (P40337 whole entry): as the sequence (P40337 whole entry) above
For experiment [11] the target is unchanged. Kind of experiment: PROTAC activity at VHL1/SMARCA2 in human genetically modified Hela cells assessed as maximal degradation measured after 24 hrs incubation by Nano-Glo HiBiT Lytic Detection Assay relative to control. Format: cell-based.
Experiment [12] addresses T2, von Hippel-Lindau disease tumor suppressor/SWI/SNF-related matrix-associated actin-dependent regulator of chromatin subfamily A member 4. Kind of experiment: PROTAC activity at VHL1/SMARCA4 mutant in human SK-MEL-5 cells assessed as degradation measured after 24 hrs incubation by Western blot analysis. Format: cell-based.
Experiment [13] has the same target. Kind of experiment: PROTAC activity at VHL1/SMARCA4 in human genetically modified Hela cells assessed as degradation measured after 24 hrs incubation by Nano-Glo HiBiT Lytic Detection Assay. Format: cell-based.
Target sequence in this assay (P51532 whole entry): as the sequence (P51532 whole entry) above
Target sequence in this assay (P40337 whole entry): as the sequence (P40337 whole entry) above
Experiment [14] concerns the target T1, von Hippel-Lindau disease tumor suppressor/SWI/SNF-related matrix-associated actin-dependent regulator of chromatin subfamily A member 2. Description: PROTAC activity at VHL1/SMARCA2 in human genetically modified Hela cells assessed as degradation measured after 48 hrs incubation by Nano-Glo HiBiT Lytic Detection Assay. The experiment is classed as cell-based.
Target sequence in this assay (P51531 whole entry): as the sequence (P51531 whole entry) above
Target sequence in this assay (P40337 whole entry): as the sequence (P40337 whole entry) above

Experiment [15] shares this target. Description: PROTAC activity at VHL1/SMARCA2 in human genetically modified Hela cells assessed as maximal degradation measured after 4 hrs incubation by Nano-Glo HiBiT Lytic Detection Assay relative to control. The experiment is classed as cell-based.
The nature of experiment [16]: Anticancer activity against SMARCA4 deficient human NCI-H838 cells assessed as maximal inhibition of cell growth measured after 7 days incubation by WST-8 assay relative to control. Particulars: time 7 day. The experiment is classed as functional.
Experiment [17] concerns the target T1, von Hippel-Lindau disease tumor suppressor/SWI/SNF-related matrix-associated actin-dependent regulator of chromatin subfamily A member 2. Description: PROTAC activity at VHL1/SMARCA2 in human NCI-H1792 cells assessed as maximal degradation measured after 24 hrs incubation by Western blot analysis relative to control. Format: cell-based.
Experiment [18] deals with von Hippel-Lindau disease tumor suppressor/SWI/SNF-related matrix-associated actin-dependent regulator of chromatin subfamily A member 4 (Homo sapiens), P51532+P40337 [UNDEFINED MUTATION]. Description: PROTAC activity at VHL1/SMARCA4 mutant in human SK-MEL-5 cells assessed as maximal degradation measured after 24 hrs incubation by Western blot analysis relative to control. The experiment is classed as cell-based.

Experiment [19] has as its target T2, von Hippel-Lindau disease tumor suppressor/SWI/SNF-related matrix-associated actin-dependent regulator of chromatin subfamily A member 4. Kind of experiment: PROTAC activity at VHL1/SMARCA4 in human genetically modified Hela cells assessed as maximal degradation measured after 4 hrs incubation by Nano-Glo HiBiT Lytic Detection Assay relative to control. The experiment is classed as cell-based.

Experiment [20] concerns the target T1, von Hippel-Lindau disease tumor suppressor/SWI/SNF-related matrix-associated actin-dependent regulator of chromatin subfamily A member 2. Description: PROTAC activity at VHL1/SMARCA2 in human genetically modified Hela cells assessed as degradation measured after 4 hrs incubation by Nano-Glo HiBiT Lytic Detection Assay. The experiment is classed as cell-based.
Target sequence in this assay (P51531 whole entry): as the sequence (P51531 whole entry) above
Target sequence in this assay (P40337 whole entry): as the sequence (P40337 whole entry) above

For experiment [21] the target is unchanged. Description: PROTAC activity at VHL1/SMARCA2 in human NCI-H1792 cells assessed as degradation measured after 24 hrs incubation by Western blot analysis. Format: cell-based.
Target sequence in this assay (P51531 whole entry): as the sequence (P51531 whole entry) above
Target sequence in this assay (P40337 whole entry): as the sequence (P40337 whole entry) above
For experiment [22] the target is unchanged. Description: PROTAC activity at VHL1/SMARCA2 in human genetically modified Hela cells assessed as degradation measured after 24 hrs incubation by Nano-Glo HiBiT Lytic Detection Assay. The experiment is classed as cell-based.
Target sequence in this assay (P51531 whole entry): as the sequence (P51531 whole entry) above
Target sequence in this assay (P40337 whole entry): as the sequence (P40337 whole entry) above
Experiment [23] has as its system SK-MEL-28. Kind of experiment: Anticancer activity against human SK-MEL-28 cells harbouring wild type SMARCA4 assessed as inhibition of cell growth measured after 7 days incubation by WST-8 assay. The conditions noted are these: SK-MEL-28, 168 h, time 7 day. The experiment is classed as functional.
Experiment [24] concerns NCI-H1792. Kind of experiment: Anticancer activity against human NCI-H1792 cells harbouring wild type SMARCA4 assessed as maximal inhibition of cell growth measured after 7 days incubation by WST-8 assay relative to control. Format: functional. The conditions noted are these: time 7 day.
Experiment [25] concerns von Hippel-Lindau disease tumor suppressor/SWI/SNF-related matrix-associated actin-dependent regulator of chromatin subfamily A member 4 (Homo sapiens), P51532+P40337 [UNDEFINED MUTATION]. Description: PROTAC activity at VHL1/SMARCA4 mutant in human NCI-H838 cells assessed as maximal degradation measured after 24 hrs incubation by Western blot analysis relative to control. Format: cell-based.

For experiment [26], the target named is T2, von Hippel-Lindau disease tumor suppressor/SWI/SNF-related matrix-associated actin-dependent regulator of chromatin subfamily A member 4. Description: PROTAC activity at VHL1/SMARCA4 in human genetically modified Hela cells assessed as maximal degradation measured after 48 hrs incubation by Nano-Glo HiBiT Lytic Detection Assay relative to control. Format: cell-based.

Experiment [27] has as its system SK-MEL-28. Description: Anticancer activity against human SK-MEL-28 cells harbouring wild type SMARCA4 assessed as maximal inhibition of cell growth measured after 7 days incubation by WST-8 assay relative to control. The conditions noted are these: time 7 day. Format: functional.
Experiment [28] addresses T2, von Hippel-Lindau disease tumor suppressor/SWI/SNF-related matrix-associated actin-dependent regulator of chromatin subfamily A member 4. Kind of experiment: PROTAC activity at VHL1/SMARCA4 in human NCI-H1792 cells assessed as degradation measured after 24 hrs incubation by Western blot analysis. Format: cell-based.
Target sequence in this assay (P51532 whole entry): as the sequence (P51532 whole entry) above
Target sequence in this assay (P40337 whole entry): as the sequence (P40337 whole entry) above
Experiment [29] shares this target. Kind of experiment: PROTAC activity at VHL1/SMARCA4 in human genetically modified Hela cells assessed as degradation measured after 4 hrs incubation by Nano-Glo HiBiT Lytic Detection Assay. Format: cell-based.
Target sequence in this assay (P51532 whole entry): as the sequence (P51532 whole entry) above
Target sequence in this assay (P40337 whole entry): as the sequence (P40337 whole entry) above
The target is the same in experiment [30]. Description: PROTAC activity at VHL1/SMARCA4 mutant in human NCI-H838 cells assessed as degradation measured after 24 hrs incubation by Western blot analysis. Format: cell-based.
A further experiment has as its system HeLa. Description: Selectivity ratio, ratio of DC50 for VHL1/SMARCA4 in human genetically modified Hela cells to VHL1/SMARCA2 in human genetically modified Hela cells. Format: cell-based.
The target of experiment [31] is T2, von Hippel-Lindau disease tumor suppressor/SWI/SNF-related matrix-associated actin-dependent regulator of chromatin subfamily A member 4. Description: PROTAC activity at VHL1/SMARCA4 in human genetically modified Hela cells assessed as maximal degradation measured after 24 hrs incubation by Nano-Glo HiBiT Lytic Detection Assay relative to control. The experiment is classed as cell-based.

Experiment [32] has the same target. Kind of experiment: PROTAC activity at VHL1/SMARCA4 in human genetically modified Hela cells assessed as degradation measured after 8 hrs incubation by Nano-Glo HiBiT Lytic Detection Assay. Format: cell-based.
Target sequence in this assay (P51532 whole entry): as the sequence (P51532 whole entry) above
Target sequence in this assay (P40337 whole entry): as the sequence (P40337 whole entry) above
The target of experiment [33] is SWI/SNF-related matrix-associated actin-dependent regulator of chromatin subfamily A member 4 (Homo sapiens, UniProt P51532). Kind of experiment: Binding affinity to SMARCA4 (unknown origin) assessed as dissociation constant.
The target of experiment [34] is T2, von Hippel-Lindau disease tumor suppressor/SWI/SNF-related matrix-associated actin-dependent regulator of chromatin subfamily A member 4. Description: PROTAC activity at VHL/SMARCA4 in human MV4-11 cells assessed as degradation. Format: cell-based.
Experiment [35] shares this target. Kind of experiment: PROTAC activity at VHL/SMARCA4 in human MV4-11 cells assessed as maximal degradation relative to control. The experiment is classed as cell-based.
Experiment [36] concerns the target T1, von Hippel-Lindau disease tumor suppressor/SWI/SNF-related matrix-associated actin-dependent regulator of chromatin subfamily A member 2. Description: PROTAC activity at VHL/SMARCA2 in human MV4-11 cells assessed as maximal degradation relative to control. Format: cell-based.
Target sequence in this assay (P51531 whole entry): as the sequence (P51531 whole entry) above
Target sequence in this assay (P40337 whole entry): as the sequence (P40337 whole entry) above

Consider `Cc1ncsc1-c1ccc([C@H](CCCCCN2CCC(c3ccc4c(c3)C3(CCCCC3)c3nc(=O)c5c(Cl)cccc5n3-4)CC2)NC(=O)[C@@H]2C[C@@H](O)CN2C(=O)[C@@H](NC(=O)C2(F)CC2)C(C)(C)C)cc1`, for which the Imax is 96% in the experiment with SK-MEL-5 [1], 92% in experiment [16], 52% with NCI-H1792 [24] and 91% in the experiment with SK-MEL-28 [27]. Also, the 50% growth inhibitory concentration (GI50) in experiment [2] turned out to be 10.5 nM; in the experiment with SK-MEL-5 [3], 1.1 nM; in the experiment with NCI-H1792 [7], 10.5 nM; in the experiment with SK-MEL-28 [23], 24.8 nM. In addition, the Emax came to 99% in experiment [4]; 96% in experiment [5]; 99% in [8]; 97% in [9]; 97% in experiment [11]; 97% in experiment [15]. For the same compound, the Emax was found to be 99% in experiment [17]; 87% in experiment [18]; 96% in experiment [19]; 89% in experiment [25]; 98% in experiment [26]; 96% in experiment [31]. In addition, the DC50 in [6] was found to be 27 nM; in [10], 6 nM; in experiment [12] it was 81.1 nM; in experiment [13], 3.3 nM; in experiment [14], 4 nM; in experiment [20] it was 10 nM. Also, the DC50 was determined as 1.7 nM in experiment [21]; 0.4 nM in experiment [22]; 26 nM in [28]; 38 nM in [29]; 76.2 nM in [30]; 27 nM in [32]. The Ratio with HeLa amounted to 8.
As to `Cn1cc(-c2cc(-c3ccccc3O)nnc2N)cn1`, the Kd in experiment [33] came out at 12.8 nM.
As to `Cc1ncsc1-c1ccc(CNC(=O)[C@@H]2C[C@@H](O)CN2C(=O)[C@@H](NC(=O)C2(F)CC2)C(C)(C)C)c(OCCOc2ccc(CN3CCN(c4cc(-c5ccccc5O)nnc4N)CC3)cc2)c1`, the Emax in experiment [34] and in experiment [35] was greater than 95% throughout. Moreover, in [36], the DC50 was 11 nM.
